Results published in PMC9756503, “Pharmacodynamic properties for inhibition of cAMP- and cGMP elimination by pentoxifylline remain unaltered in vitro during hypothermia” (Scandinavian Journal of Trauma, Resuscitation and Emergency …, 2022).
Where two headings read alike, the source gives them in different places.

Key:
Recombinant human PDE3 = test: Inhibition of PDE3-mediated enzymatic breakdown of cAMP; assay type: biochemical; conditions: for Ki: Cheng-Prusoff; for [PDE3-inhibition]/[PDE5-inhibition] / [PDE3-inhibition]/[cAMP-efflux inhibition]: ratio between IC50-values
Description: (§1) Assessment of pentoxifyllines ability to inhibit the phosphodiesterase enzymes were performed by incubating cAMP or cGMP with seven different concentrations of pentoxifylline. The concentrations were increasing by a factor of 10 ranging from 1.00 nM to 1.00 mM. For PDE3 assessment, the incubation solution included cAMP and for PDE5 assessment it included cGMP. Experiments were performed in triplicates each day at three separate days - in total 9 parallels. The reaction was started by adding either a solution containing 0.016 units/µg protein of PDE3 (Abcam, Cambridge UK), or 0.022 units/µg protein of PDE5 (Sigma-Aldrich, St. Louis, USA), to the Eppendorf tubes. Control samples were free of drug and was either with or without PDE3 or PDE5. This was done to assure that only the relevant PDE was responsible for breakdown of the cyclic nucleotide, as no other enzyme nor cellular material was added to the incubations. The incubation time was 30 min. Reaction was stopped by adding methanol to the tubes. Internal standard of cGMP/GMP or cAMP/AMP (Sigma-Aldrich, St. Louis, MO, USA, Germany and Toronto Research Chemicals Inc., Ontario, Canada) were added to each sample. 5 samples contained only known concentrations of cGMP/GMP or cAMP/AMP and served as calibrators. Samples were analyzed for cGMP/GMP and cAMP/AMP content, using MS [14, 15].
Quantification of cAMP/AMP, cGMP/GMP and pentoxifylline in PDE- and intracellular access experiments were performed with liquid chromatography tandem mass spectrometry (LC–MS/MS). Preparation of samples for LC–MS/MS-analysis is described in paragraphs above.
(§2) Analysis and graph production were performed in SigmaPlot 14.0 (Systat Software, San Jose, CA, USA.). Ability to inhibit the different elimination pathways, enzymes and efflux pumps, were calculated as IC50-values, as according to Chou. Ki-values were obtained by using the methods described by Cheng and Prustoff. Measurement of intracellular concentrations of drugs were adjusted for protein concentrations in each sample. The incubation concentrations were also adjusted for protein concentration in each sample to evaluate the access in percentage. […] The same analysis was performed for intracellular concentrations of pentoxifylline during hypothermia compared to baseline (37 °C). When data was not normally distributed ANOVA on ranks and Dunn`s post hoc test was performed. Data are presented as mean ± standard error of the mean (SEM). p-values were considered significant when < 0.05.

Recombinant human PDE5 = biological target: T1, Recombinant human PDE5 (Homo sapiens, UniProt O76074); test: Inhibition of PDE5-mediated enzymatic breakdown of cGMP; assay type: biochemical; conditions: for Ki: Cheng-Prusoff; for [PDE5-inhibition]/[cGMP-efflux inhibition]: ratio between IC50-values
T1 construct: purchased Sigma-Aldrich
Description: as §1
Quantification of cAMP/AMP, cGMP/GMP and pentoxifylline in PDE- and intracellular access experiments were performed with liquid chromatography tandem mass spectrometry (LC–MS/MS). Preparation of samples for LC–MS/MS-analysis is described in paragraphs above. […] For GMP the method was linear from 2 nM to at least 2000 nM (r^2 > 0.998), and 10 nM to at least 5000 nM for pentoxifylline (r^2 > 0.998).
Analysis and graph production were performed in SigmaPlot 14.0 (Systat Software, San Jose, CA, USA.). Ability to inhibit the different elimination pathways, enzymes and efflux pumps, were calculated as IC50-values, as according to Chou. Ki-values were obtained by using the methods described by Cheng and Prustoff. Measurement of intracellular concentrations of drugs were adjusted for protein concentrations in each sample. The incubation concentrations were also adjusted for protein concentration in each sample to evaluate the access in percentage. Analysis of variance (ANOVA) with Holm-Sidak multiple comparison post-hoc test was performed to evaluate changes in IC50-values compared to baseline (37 °C) for all elimination pathways. The same analysis was performed for intracellular concentrations of pentoxifylline during hypothermia compared to baseline (37 °C). When data was not normally distributed ANOVA on ranks and Dunn`s post hoc test was performed. Data are presented as mean ± standard error of the mean (SEM). p-values were considered significant when < 0.05.

ABCC4 = biological target: T2, ABCC4 (Homo sapiens, UniProt O15439); test: biochemical; assay type: biochemical; conditions: for Ki: Cheng-Prusoff, read-out: Ki for inhibition of cAMP-efflux; for [cAMP-efflux inhibition]/[cGMP-efflux inhibition]: ratio between IC50-values; for IC50: read-out: IC50 for inhibition of cAMP-efflux
T2 construct: inside-out vesicles (IOV)s where erythrocytes from healthy, human donors were sampled; endogenous in cells; host or cells: inside-out vesicles from erythrocytes of healthy human donors
T2 sequence (O15439 1-1325): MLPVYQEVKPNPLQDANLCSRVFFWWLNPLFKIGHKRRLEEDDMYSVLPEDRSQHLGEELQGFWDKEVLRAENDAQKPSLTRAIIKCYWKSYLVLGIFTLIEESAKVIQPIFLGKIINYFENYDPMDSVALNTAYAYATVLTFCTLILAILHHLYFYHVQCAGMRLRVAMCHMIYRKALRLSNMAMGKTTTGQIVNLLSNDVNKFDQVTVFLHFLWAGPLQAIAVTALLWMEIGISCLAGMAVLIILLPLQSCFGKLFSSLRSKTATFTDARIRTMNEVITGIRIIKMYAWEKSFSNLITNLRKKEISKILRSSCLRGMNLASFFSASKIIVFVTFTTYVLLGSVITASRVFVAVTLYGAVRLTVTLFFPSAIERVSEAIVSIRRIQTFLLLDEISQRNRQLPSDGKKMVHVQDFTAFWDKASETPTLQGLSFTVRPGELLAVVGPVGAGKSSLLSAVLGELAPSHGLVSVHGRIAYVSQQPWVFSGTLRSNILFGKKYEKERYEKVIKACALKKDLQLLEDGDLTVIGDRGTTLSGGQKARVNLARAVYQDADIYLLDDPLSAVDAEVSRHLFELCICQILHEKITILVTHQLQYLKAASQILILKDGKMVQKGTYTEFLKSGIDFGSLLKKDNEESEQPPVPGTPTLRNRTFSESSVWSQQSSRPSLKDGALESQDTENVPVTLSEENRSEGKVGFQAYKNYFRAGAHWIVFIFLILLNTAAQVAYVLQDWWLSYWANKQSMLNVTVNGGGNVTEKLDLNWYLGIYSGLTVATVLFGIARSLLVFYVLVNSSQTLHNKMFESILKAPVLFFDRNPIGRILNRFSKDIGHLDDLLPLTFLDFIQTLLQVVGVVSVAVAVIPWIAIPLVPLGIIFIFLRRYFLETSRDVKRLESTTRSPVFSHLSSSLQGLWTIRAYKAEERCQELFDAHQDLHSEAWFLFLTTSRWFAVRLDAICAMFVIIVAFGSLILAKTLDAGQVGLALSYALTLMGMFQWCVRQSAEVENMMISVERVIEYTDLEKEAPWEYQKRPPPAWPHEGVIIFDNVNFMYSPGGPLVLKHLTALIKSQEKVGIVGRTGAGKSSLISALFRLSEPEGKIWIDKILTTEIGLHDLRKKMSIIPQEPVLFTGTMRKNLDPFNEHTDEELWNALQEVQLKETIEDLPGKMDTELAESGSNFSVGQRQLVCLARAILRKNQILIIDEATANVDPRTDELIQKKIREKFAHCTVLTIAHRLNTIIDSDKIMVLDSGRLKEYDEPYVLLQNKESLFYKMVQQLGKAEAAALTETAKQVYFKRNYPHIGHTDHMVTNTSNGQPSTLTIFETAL
Description: (§3) Cellular efflux was estimated with inside-out vesicles (IOV)s where erythrocytes from healthy, human donors were sampled. Donors were pre-screened and only admitted as donors by Blodbanken UNN (Department of Immunohematology and Transfusion Medicine, University Hospital of North Norway) if they were healthy. The erythrocytes were separated from plasma by centrifugation and washed. Inside-out vesicles were prepared according to Orvoll et al. with minor modifications. Percentage IOV was verified using acetylcholinesterase accessibility test. Batches of IOVs used in the parallels were made 8 times, including blood from a total of 35 healthy donors.
(§4) IOVs were then incubated with or without 2 mM ATP and 7 different concentrations of pentoxifylline increasing by a factor of 10 ranging from 1.00 nM to 1.00 mM. The incubation solutions also included radioactive labeled [^3H]-cGMP or [^3H]-cAMP (Perkin Elmer, Boston, MA, USA), at a concentration of respectively 2 µM and 20 µM. [^3H]-cAMP was used to assess ABCC4-inhibition and [^3H]-cGMP for ABCC5-inhibition. The assays were performed in triplicates at 3 different days: In total 9 parallels were performed to calculate results for each concentration of pentoxifylline at all temperatures. Incubation time of 60 min was chosen to ensure sufficient quality of the samples for each parallel. The transport was stopped by adding ice cold buffer. The IOVs were then filtered through a nitrocellulose membrane (Bio-Rad Laboratories, Feldkirchen Germany), and the membrane was dried. The dried membranes were later added scintillation fluid and radioactivity was measured using a Packard TopCount NXT (Packard, Downers Grove, IL, USA).
as §2

ABCC5 = biological target: T3, ABCC5 (Homo sapiens, UniProt O15440); test: Inhibition of [3H]-cGMP efflux in erythrocyte inside-out vesicles; assay type: biochemical; conditions: for Ki: Cheng-Prusoff
T3 construct: inside-out vesicles (IOV)s where erythrocytes from healthy, human donors were sampled; endogenous in cells; host or cells: inside-out vesicles from erythrocytes of healthy human donors
Description: as §3, §4, §2

[1] = parameters: method as in PMID 26870389; conditions: review on cardiovascular effects; cited from earlier work

T3 sequence (O15440 whole entry): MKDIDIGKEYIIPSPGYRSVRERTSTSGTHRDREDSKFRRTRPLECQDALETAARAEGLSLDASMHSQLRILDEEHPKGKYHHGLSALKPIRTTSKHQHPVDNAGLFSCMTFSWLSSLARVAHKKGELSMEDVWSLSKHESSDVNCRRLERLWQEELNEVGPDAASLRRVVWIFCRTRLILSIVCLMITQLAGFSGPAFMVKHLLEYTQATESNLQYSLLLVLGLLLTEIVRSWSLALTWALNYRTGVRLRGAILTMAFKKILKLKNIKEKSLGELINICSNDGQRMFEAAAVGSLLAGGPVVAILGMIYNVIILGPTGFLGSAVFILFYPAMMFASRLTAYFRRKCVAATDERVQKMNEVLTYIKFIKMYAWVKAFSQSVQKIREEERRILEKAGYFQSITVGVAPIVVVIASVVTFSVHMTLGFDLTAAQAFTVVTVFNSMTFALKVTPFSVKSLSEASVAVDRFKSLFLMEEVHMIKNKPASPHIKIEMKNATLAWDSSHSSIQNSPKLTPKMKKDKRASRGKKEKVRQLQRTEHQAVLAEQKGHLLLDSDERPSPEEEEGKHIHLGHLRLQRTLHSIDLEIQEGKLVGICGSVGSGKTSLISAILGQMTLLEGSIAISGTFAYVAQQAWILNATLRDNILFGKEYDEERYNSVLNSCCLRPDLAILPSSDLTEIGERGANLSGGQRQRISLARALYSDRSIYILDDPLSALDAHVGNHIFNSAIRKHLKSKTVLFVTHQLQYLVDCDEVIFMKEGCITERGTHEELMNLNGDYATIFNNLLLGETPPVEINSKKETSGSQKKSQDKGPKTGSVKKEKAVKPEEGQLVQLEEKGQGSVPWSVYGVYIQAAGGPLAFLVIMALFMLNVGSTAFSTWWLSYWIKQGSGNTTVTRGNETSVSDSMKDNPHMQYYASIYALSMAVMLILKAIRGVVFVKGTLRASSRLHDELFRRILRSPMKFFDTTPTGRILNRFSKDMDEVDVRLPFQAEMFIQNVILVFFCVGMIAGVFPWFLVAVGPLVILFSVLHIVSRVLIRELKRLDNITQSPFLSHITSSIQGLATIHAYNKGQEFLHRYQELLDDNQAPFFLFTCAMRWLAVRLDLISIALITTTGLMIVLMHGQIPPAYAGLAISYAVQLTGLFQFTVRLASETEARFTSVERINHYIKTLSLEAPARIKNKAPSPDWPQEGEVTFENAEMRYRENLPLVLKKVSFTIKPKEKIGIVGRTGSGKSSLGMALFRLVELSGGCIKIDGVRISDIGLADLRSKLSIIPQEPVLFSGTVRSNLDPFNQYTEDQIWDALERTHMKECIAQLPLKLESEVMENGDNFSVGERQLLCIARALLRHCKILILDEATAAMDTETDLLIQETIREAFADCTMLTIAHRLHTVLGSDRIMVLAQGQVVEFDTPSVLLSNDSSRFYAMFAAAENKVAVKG

CC(=O)CCCCn1c(=O)c2c(ncn2C)n(C)c1=O [pentoxifylline]
IC50 (Recombinant human PDE3; 20 °C): 31 ± 9.47 µM
Ki (Recombinant human PDE3; 20 °C): 1.42 ± 0.434 µM
[PDE3-inhibition]/[PDE5-inhibition] (Recombinant human PDE3; 20 °C): 0.788
IC50 (Recombinant human PDE3; 24 °C): 29.2 ± 4.72 µM
Ki (Recombinant human PDE3; 24 °C): 1.34 ± 0.216 µM
[PDE3-inhibition]/[PDE5-inhibition] (Recombinant human PDE3; 24 °C): 1.16
IC50 (Recombinant human PDE3; 28 °C): 22.4 ± 6.36 µM
Ki (Recombinant human PDE3; 28 °C): 1.02 ± 0.291 µM
[PDE3-inhibition]/[PDE5-inhibition] (Recombinant human PDE3; 28 °C): 0.920
[PDE3-inhibition]/[cAMP-efflux inhibition] (Recombinant human PDE3; 28 °C): 11.6
IC50 (Recombinant human PDE3; 32 °C): 26.7 ± 4.7 µM
Ki (Recombinant human PDE3; 32 °C): 1.22 ± 0.215 µM
[PDE3-inhibition]/[PDE5-inhibition] (Recombinant human PDE3; 32 °C): 1.72
[PDE3-inhibition]/[cAMP-efflux inhibition] (Recombinant human PDE3; 32 °C): 13.3
IC50 (Recombinant human PDE3; 34 °C): 14.2 ± 1.51 µM
Ki (Recombinant human PDE3; 34 °C): 0.651 ± 0.069 µM
[PDE3-inhibition]/[PDE5-inhibition] (Recombinant human PDE3; 34 °C): 1.33
[PDE3-inhibition]/[cAMP-efflux inhibition] (Recombinant human PDE3; 34 °C): 3.94
IC50 (Recombinant human PDE3; 37 °C): 15.8 ± 4.25 µM
Ki (Recombinant human PDE3; 37 °C): 0.723 ± 0.195 µM
[PDE3-inhibition]/[PDE5-inhibition] (Recombinant human PDE3; 37 °C): 2.05
[PDE3-inhibition]/[cAMP-efflux inhibition] (Recombinant human PDE3; 37 °C): 11.9
IC50 (Recombinant human PDE5; 20 °C): 39.4 ± 10.9 µM
Ki (Recombinant human PDE5; 20 °C): 10 ± 2.78 µM
[PDE5-inhibition]/[cGMP-efflux inhibition] (Recombinant human PDE5; 20 °C): 102
IC50 (Recombinant human PDE5; 24 °C): 25.2 ± 6.57 µM
Ki (Recombinant human PDE5; 24 °C): 6.4 ± 1.67 µM
[PDE5-inhibition]/[cGMP-efflux inhibition] (Recombinant human PDE5; 24 °C): 50.2
IC50 (Recombinant human PDE5; 28 °C): 24.3 ± 5.58 µM
Ki (Recombinant human PDE5; 28 °C): 6.17 ± 1.42 µM
[PDE5-inhibition]/[cGMP-efflux inhibition] (Recombinant human PDE5; 28 °C): 28.6
IC50 (Recombinant human PDE5; 32 °C): 15.5 ± 0.753 µM
Ki (Recombinant human PDE5; 32 °C): 3.94 ± 0.191 µM
[PDE5-inhibition]/[cGMP-efflux inhibition] (Recombinant human PDE5; 32 °C): 21.4
IC50 (Recombinant human PDE5; 34 °C): 10.7 ± 1.92 µM
Ki (Recombinant human PDE5; 34 °C): 2.71 ± 0.487 µM
[PDE5-inhibition]/[cGMP-efflux inhibition] (Recombinant human PDE5; 34 °C): 12.0
IC50 (Recombinant human PDE5; 37 °C): 7.7 ± 0.265 µM
Ki (Recombinant human PDE5; 37 °C): 1.95 ± 0.067 µM
[PDE5-inhibition]/[cGMP-efflux inhibition] (Recombinant human PDE5; 37 °C): 14.5
Ki (ABCC4; 28 °C): 0.918 ± 0.465 µM
[cAMP-efflux inhibition]/[cGMP-efflux inhibition] (ABCC4; 28 °C): 2.27
IC50 (ABCC4; 28 °C): 1.93 ± 1.11 µM
Ki (ABCC4; 32 °C): 1.16 ± 0.526 µM
[cAMP-efflux inhibition]/[cGMP-efflux inhibition] (ABCC4; 32 °C): 2.78
IC50 (ABCC4; 32 °C): 2.01 ± 0.819 µM
Ki (ABCC4; 34 °C): 2.03 ± 1.46 µM
[cAMP-efflux inhibition]/[cGMP-efflux inhibition] (ABCC4; 34 °C): 4.04
IC50 (ABCC4; 34 °C): 3.61 ± 2.59 µM
Ki (ABCC4; 37 °C): 0.805 ± 0.343 µM
[cAMP-efflux inhibition]/[cGMP-efflux inhibition] (ABCC4; 37 °C): 2.50
IC50 (ABCC4; 37 °C): 1.33 ± 0.566 µM
Inhibition of cAMP-efflux (ABCC4-activity) (ABCC4; temperatures below 28 °C (24 and 20 °C)): no inhibition
IC50 (ABCC5; 20 °C): 0.388 ± 0.07 µM
IC50 (ABCC5; 24 °C): 0.502 ± 0.315 µM
Ki (ABCC5; 24 °C): 0.32 ± 0.183 µM
IC50 (ABCC5; 28 °C): 0.851 ± 0.281 µM
Ki (ABCC5; 28 °C): 0.481 ± 0.159 µM
IC50 (ABCC5; 32 °C): 0.724 ± 0.206 µM
Ki (ABCC5; 32 °C): 0.409 ± 0.116 µM
IC50 (ABCC5; 34 °C): 0.893 ± 0.401 µM
Ki (ABCC5; 34 °C): 0.505 ± 0.226 µM
IC50 (ABCC5; 37 °C): 0.531 ± 0.338 µM
Ki (ABCC5; 37 °C): 0.3 ± 0.191 µM
clinical serum concentrations [1]: 1 to 10 µM
